Values after ≈ are worked out from the molar mass of the structure shown.
Assays:
[1] = system: L. donovani promastigotes; assay: Leishmania donovani promastigote assay (Alamar Blue); type: cell-based; details: 72 h, 26 °C, tested concentrations (µg/mL) 20–0.8 extracts, 10–0.4 pure compounds and pentamidine, 2.0–0.08 amphotericin B, NA = not active
Procedure: (§1) EO and extracts (A-D) at a stock concentration of 20 mg/mL were dilute to 4 mg/mL with DMSO. The obtained solutions (4 mg/mL) were four-fold diluted with incomplete RPMI medium to 1 mg/mL. Pure compounds at a stock concentration of 2 mg/mL in DMSO were diluted four-fold with incomplete RPMI medium to 0.5 mg/mL.
(§2) The extracts and pure compounds (highest concentrations 20 µg/mL for extracts and 10 µg/mL for pure compounds) were subject to different tests, namely Leishmania donovani promastigote assay, L. donovani axenic amastigote assay, L. donovani THP1 macrophage amastigote assay, Trypanosoma brucei trypamastigotes assay and THP1 toxicity assay. Alamar Blue assay was perform as previously described by other authors.
(§3) These assays have been adapted to 384-well micro-plate format. A 3–4 days old culture of Leishmania donovani promastigotes harvested in the exponential growth phase was diluted with RPMI medium to 1 × 10^6 cells/mL for promastigote assays. A 3–4 days old culture of Leishmania donovani axenic amastigotes was diluted with RPMI medium to 2 × 10^6 cells/mL for axenic amastigote assays. A 2 days old culture of Trypanosoma brucei harvested in the exponential phase was diluted with Iscove's Modified Dulbecco's Medium (IMDM) to 5 × 10^3 cells/mL for the antitrypanosomal assay.
(§4) Samples were added to the L. donovani promastigotes, L. donovani axenic amastigotes or T. brucei trypamastigotes cultures. The extracts were initially test at single concentrations of […] for primary screening. The active extracts and pure compounds were test at three or six concentrations ranging from 10 to 0.0032 µg/mL. The plates were incubated at 26 °C for 72 h (37 °C for axenic amastigotes and T. brucei trypamastigotes) and growth of cultured parasites was determined by the Alamar Blue assay [32 33].

[2] = system: L. donovani axenic amastigotes; assay: L. donovani axenic amastigote assay (Alamar Blue); type: cell-based; details: Leishmania donovani; first Amastigote column; 72 h, 37 °C; tested concentrations (µg/mL) 20–0.8 extracts, 10–0.4 pure compounds and pentamidine, 2.0–0.08 amphotericin B; NA = not active
Procedure: as §1, §2
These assays have been adapted to 384-well micro-plate format. A 3–4 days old culture of Leishmania donovani promastigotes harvested in the exponential growth phase was diluted with RPMI medium to 1 × 10^6 cells/mL for promastigote assays. […]
Samples were added to the L. donovani promastigotes, L. donovani axenic amastigotes or T. brucei trypamastigotes cultures. […] The plates were incubated at 26 °C for 72 h (37 °C for axenic amastigotes and T. brucei trypamastigotes) and growth of cultured parasites was determined by the Alamar Blue assay [32 33].

[3] = system: human HepG2 hepatoma cells; assay: Inhibition of cellular oxidative stress assay (ABAP, DCFH-DA); type: cell-based
Procedure: The cellular antioxidant activity of S. ceratophylla EO and other extracts was measured in human HepG2 hepatoma cells This assay determines the ability of test samples to prevent intracellular generation of peroxyl radicals in response to 2,2- azobis (2-amidinopropane) dihydrochloride (ABAP, Sigma-Aldrich, St Louis, MO, USA).
HepG2 cells were culture in Dulbecco's Modified Eagle Medium (DMEM) supplemented with 10% fetal bovine serum (FBS), 50 units/mL penicillin and 50 µg/mL streptomycin. Cells were seed in 96-well plates (60,000 cells/well) and incubated for 24 h. The tested samples were diluted in serum free medium containing 25 µM 2^′,7′, dichoroflouresceine diacetate (DCFH-DA, Invitrogen, Carlsbad, CA, USA). The cells were wash with PBS and treated with test samples during 1 h. The medium containing tested samples was removed, ABAP (600 µM) was added and the plate was immediately placed on a Spectra Max plate reader for kinetic reading every 5 min during 1 h (37 °C, emission at 538 nm and excitation at 485 nm). Quercetin (Sigma-Aldrich) was use as positive control. To calculate the percentage of decrease in oxidative stress, the Area Under the Curve (AUC) of fluorescence versus time was used. Decrease in oxidative stress%=AUC control^100-[AUC tested sample×100]

NF-κB = assay: Inhibition of NF-κB activity, luciferase reporter in SW 1353 cells; type: cell-based; details: Homo sapiens, SW1353; SW 1353, PMA 70 ng/mL, 8 h; NA = not active at tested concentration
Procedure: The inhibition activity of tested samples against NF-κB was evaluate as described. The SW 1353 human chondrosarcoma cell line was culture in a mixture of Dulbecco's Modified Eagle's Medium (DMEM) and Ham's F-12 Nutrient (DMEM/F12) supplemented with 10% FBS, 100 U/Ml penicillin and 100 µg/mL streptomycin. Cultured cells were washed in antibiotic and FBS-free DMEM/F12 medium and then re-suspended in FBS-free DMEM/F12 medium containing 2.5% FBS. NF-κB luciferase plasmid construct was added to the cell suspension in a concentration of 50 µg/mL and incubated for 5 min at 25 °C. The cells were transfected by electroporation at 160 V and one 70 ms pulse using BTX disposable cuvettes (model 640 in a BTX Electro Square Porator T 820—BTX I, San Diego, CA, USA), Transfected cells were plate in 96-well plates at a density of 1.25 × 10^5cells per well in 200 µL of DMEM/F12 containing 10% FBS and antibiotics. After incubation for 24 h, the cells were treated with test samples for 30 min and then induced with PMA (70 ng/mL) for 8 h. The inhibition of NF-κB activity by EO, other extracts, and pure compounds was calculated in comparison to vehicle control. The IC50 values were obtain from the dose curves. Parthenolide was use as positive control.

[4] = system: T. brucei trypamastigotes; assay: Trypanosoma brucei trypamastigotes assay (Alamar Blue); type: cell-based; details: 72 h, 37 °C, tested concentrations (µg/mL) 20–0.8 extracts and DFMO, 10–0.4 pure compounds, NA = not active
Procedure: as §1, §2, §3, §4

[5] = system: T. brucei brucei blood stream forms; design: method as in PMID 16557466; details: cited from earlier work
human KB carcinoma (KB) = assay: Cytotoxic activity, Neutral Red assay, KB; type: cell-based; details: 48 h, NA = not active at 10 µg/mL for pure compound, at 100 µg/mL for extracts
Procedure: (§5) All cell lines used in this study were purchase from American Type Culture Collection (ATCC, Rockville, MD). The cytotoxic activity of the EO, extracts isolated from S. ceratophylla and pure compounds was determined in vitro against various human cancer cells: skin malignant melanoma (SK-MEL), human KB carcinoma (KB), breast ductal carcinoma (BT-549), ovarian carcinoma (SK-OV-3), and in two non-cancerous mammalian kidney cell lines (LLC-PK1 and VERO). Cells were seed at a density of 25,000 cells/well and incubated during 24 h. The tested EO, extracts and pure compounds were added separately at studied concentrations and cells were re-incubated during 48 h. After incubation time, the viability of cells was assessed by using Neutral Red Dye as described. DMSO was use as negative control and doxorubicin as positive control.

[6] = Cytotoxic activity, Neutral Red assay, LLC-PK1; type: cell-based; details: pig, LLC-PK1 kidney epithelial cells (non-cancerous), NA = not active at 10 µg/mL for pure compound, at 100 µg/mL for extracts
Procedure: as §5

[7] = system: skin malignant melanoma (SK-MEL); assay: Cytotoxic activity, Neutral Red assay, SK-MEL; type: cell-based; details: Homo sapiens; 48 h; NA = not active at 10 µg/mL for pure compound, at 100 µg/mL for extracts
Procedure: as §5

[8] = system: ovarian carcinoma (SK-OV-3); assay: Cytotoxic activity, Neutral Red assay, SK-OV-3; type: cell-based; details: Homo sapiens, 48 h, NA = not active at 10 µg/mL for pure compound, at 100 µg/mL for extracts
Procedure: as §5

[9] = Cytotoxic activity, Neutral Red assay, Vero; type: cell-based; details: African green monkey, Vero kidney fibroblast cells (non-cancerous), NA = not active at 10 µg/mL for pure compound, at 100 µg/mL for extracts
Procedure: as §5

[10] = system: breast ductal carcinoma (BT-549); assay: Cytotoxic activity, Neutral Red assay, BT-549; type: cell-based; details: Homo sapiens, 48 h, NA = not active at 10 µg/mL for pure compound, at 100 µg/mL for extracts
Procedure: as §5

[11] = system: differentiated THP1 cells; assay: THP1 toxicity assay (Alamar Blue); type: cell-based; details: Homo sapiens, THP-1; 48 h; tested concentrations (µg/mL) 20–0.8 extracts, 10–0.4 pure compounds and pentamidine, 2.0–0.08 amphotericin B; NA = not active
Procedure: Alamar Blue assay was perform as previously described by other authors. […] PMA was added to a final concentration of 25 ng/mL. A PMA treated culture was dispense in experimental culture plates and incubated overnight at 37 °C in a 5% CO2 incubator. The plates with differentiated THP1 cells were wash with serum-free medium. For THP1 toxicity assay, the diluted test samples (extracts or pure compounds) were add over differentiated THP1 cells and plates were incubated during 48 h at 37 °C in a 5% CO2 incubator. Cell growth was determined by the Alamar Blue assay.

[12] = system: carrageenin-induced hind paw edema; design: method as in PMID 23334570; details: dose of 25 mg/kg, p = 0.03; cited from earlier work
[13] = system: NO production in mouse macrophage cells (RAW 264.7); assay: Nitric oxide (NO) measurement, LPS-stimulated macrophages, Griess reagent; type: cell-based; details: RAW264.7, RAW 264.7, LPS 5 µg/mL, 24 h, NA = not active at tested concentration, read-out: NO inhibition IC50
Procedure: The NO inhibition by EO, extracts of S. ceratophylla and pure compounds, was assess by the following methodology. Briefly, mouse macrophage cells (RAW 264.7) were culture in phenol red free RPMI medium with 10% bovine calf serum and 100 U/mL penicillin and 100 µg/mL streptomycin.
Cells were seed in 96-well plates (50,000 cells/well) and incubated during 24 h. The tested samples were dilute in serum free medium, incubated during 30 min, then lipopolysaccharide (LPS, 5 µg/mL) was added and cells were incubated for further 24 h. The level of nitrite in the cell supernatant was measure by using Griess reagent. The inhibition of nitrite production by the tested samples was calculate in comparison to the vehicle control. Parthenolide (Sigma-Aldrich) was use as positive control. IC50 values were obtain from dose curves.

[14] = system: several cancer cell lines; design: method as in earlier work; details: up to a concentration of 200 μg/mL; cited from earlier work
[15] = system: L. amazonensis promastigotes; design: method as in PMID 12760864; details: cited from earlier work
[16] = system: transcription factor Sp-1; assay: Sp-1 inhibition; type: cell-based; details: NA = not active at tested concentration
[17] = compounds of Strychnos spinosa EO

## C[C@@H]1[C@H](O)[C@@H](C)/C=C/C=C/C=C/C=C/C=C/C=C/C=C/[C@H](O[C@@H]2O[C@H](C)[C@@H](O)[C@H](N)[C@@H]2O)C[C@@H]2O[C@](O)(C[C@@H](O)C[C@@H](O)[C@H](O)CC[C@@H](O)C[C@@H](O)CC(=O)O[C@H]1C)C[C@H](O)[C@H]2C(=O)O [Amphotericin B]
[1]
  IC50: 0.14 µg/mL (≈ 0.152 µM)
  IC90: 0.324 µg/mL (≈ 0.351 µM)
[2]
  IC50: 0.181 µg/mL (≈ 0.196 µM)

## O=c1c(O)c(-c2ccc(O)c(O)c2)oc2cc(O)cc(O)c12 [Quercetin]
[3]; 25 µM, positive control
  % decrease in oxidative stress: 75%

## CC1=CC[C@@H](C(C)(C)O)CC1 [α-Terpineol]
NF-κB
  IC50: 100 µg/mL (≈ 648 µM)
[4]; Trypanosoma brucei
  IC50: 6.04 µg/mL (≈ 39.2 µM)
  IC90: 8.22 µg/mL (≈ 53.3 µM)
[5]
  activity against T. brucei brucei blood stream forms: slightly active

## COc1cccc2c1C(=O)c1c(O)c3c(c(O)c1C2=O)C[C@@](O)(C(=O)CO)C[C@@H]3O[C@H]1C[C@H](N)[C@H](O)[C@H](C)O1 [Doxorubicin]
Human KB carcinoma (KB)
  IC50: 1.4 µg/mL (≈ 2.58 µM)
[6]
  IC50 at 48 h: 1.2 µg/mL (≈ 2.21 µM)
[7]
  IC50: 0.8 µg/mL (≈ 1.47 µM)
[8]
  IC50: 2 µg/mL (≈ 3.68 µM)
[9]
  IC50 at 48 h: > 5 µg/mL
[10]
  IC50: 0.85 µg/mL (≈ 1.56 µM)

## N=C(N)c1ccc(OCCCCCOc2ccc(C(=N)N)cc2)cc1 [Pentamidine]
[1]
  IC50: 1.02 µg/mL (≈ 3.01 µM)
  IC90: 9.28 µg/mL (≈ 27.3 µM)
[2]
  IC50: 3.8 µg/mL (≈ 11.2 µM)
[11]
  IC90: 1.74 µg/mL (≈ 5.1 µM)

## C=CC(C)(O)CCC=C(C)C (stereo not drawn) [Linalool]
[12]
  inhibition of carrageenin-induced hind paw edema: 55%
[13]
  IC50: 18 µg/mL (≈ 117 µM)
[14]
  cytotoxic activity against several cancer cell lines: did not exhibit cytotoxic activity
[5]; [17]
  IC50 towards Trypanosoma: 2.5 µg/mL (≈ 16.2 µM)
[15]
  MIC, viability of L. amazonensis promastigotes: 0.085 ng/mL

## C=CC(C)(O)CCC=C(C)CCC=C(C)C (mixture of isomers) [nerolidol]
[5]; [17]
  IC50 towards Trypanosoma: 1.7 µg/mL
  selectivity index (SI) towards Trypanosoma: 35.7

## C=C1C(=O)O[C@H]2[C@H]1CC/C(C)=C/CC[C@@]1(C)O[C@@H]21 [Parthenolide]
NF-κB
  IC50: 0.33 µg/mL (≈ 1.33 µM)
[13]
  IC50: 0.48 µg/mL (≈ 1.93 µM)

## C=C1CC/C=C(\C)CC[C@@H]2[C@@H]1CC2(C)C [Caryophyllene, (-)trans-Caryophyllene]
[16]
  IC50: 48 µg/mL (≈ 235 µM)
NF-κB
  IC50: 45 µg/mL (≈ 220 µM)
[3]; 250 µg/mL, pure compounds, NA = not active at tested concentration
  % decrease in oxidative stress: 31%
[3]; 500 µg/mL, pure compounds, NA = not active at tested concentration
  % decrease in oxidative stress: 35%

## NCCC[C@](N)(C(=O)O)C(F)F [α-difluoromethylornithine]
[4]
  T. brucei IC50: 4.792 µg/mL
  T. brucei IC90: 7.760 µg/mL
